A short description of one data set: in vivo. The note with it: for mortality: read-out: Toxicity (Mortality); for LD50: read-out: Toxicity: LD50. The text has this: *LD50 or percentage of mortality which is given between brackets
Another data set concerns anaesthetized dog. Description: Antiangorous activity on anaesthetized dog: consumption of oxygen in the left ventricule and cardiac effort (KATZ's index). Type of data set: in vivo. The following applies: for inhibition in vivo at 2.5 mg/kg / inhibition in vivo at 2.3 mg/kg / inhibition in vivo at 0.625 mg/kg / inhibition in vivo at 1.25 mg/kg / inhibition in vivo at […]: Canis lupus familiaris, iv; for inhibition in vivo at […]: 0.15 mg/kg i.v. slow perfusion. An outline of the steps: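 Dogs anaesthetized with sodium pentobarbital 30 mg/kg i.v.; compounds given by slow i.v. perfusion. Left ventricular O2 consumption = coronary venous flow (Morawitz cannula in coronary sinus) × arteriovenous O2 difference; cardiac effort (Katz index) = mean arterial pressure × heart rate from D2 ECG.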

The mark [1] stands for this setting: 2.5 mg/kg i.v. slow perfusion, read-out: Diminution in consumption of O2.
Where [2] appears, read: 2.5 mg/kg i.v. slow perfusion, read-out: Diminution in the cardiac effort (IK).
Setting [3] is: 0.625 mg/kg i.v. slow perfusion.
The mark [4] stands for this setting: 0.625 mg/kg i.v. slow perfusion, read-out: Diminution in consumption of O2.
Setting [5] is: 0.625 mg/kg i.v. slow perfusion, read-out: Diminution in the cardiac effort (IK).
Where [6] appears, read: 1.25 mg/kg i.v. slow perfusion, read-out: Diminution in consumption of O2.
Setting [7] is: 1.25 mg/kg i.v. slow perfusion, read-out: Diminution in the cardiac effort (IK).

Like-named read-outs stand apart in the source and are kept apart here.

A word on the mortality: it is the share of the test organisms that died. `COc1cc(/C=C/C(=O)N2CCN(CC(O)COc3ccc(C#N)c4c3OCCO4)CC2)cc(OC)c1OC` (stereo not shown) [770 585]: the mortality in “in vivo” (po, p.o.: 2000 mg/kg) is 0%. In the data set with anaesthetized dog (2.5 mg/kg i.v. slow perfusion), the “Diminution in consumption of O2: in time” value is 30 min and the “Diminution in the cardiac effort (IK): in time” value (“Diminution in the cardiac effort” below) is reported as 30 min. The inhibition in vivo at 2.5 mg/kg in the data set with anaesthetized dog (setting [1]) is 75%. Moreover, in the data set on anaesthetized dog (setting [2]), the inhibition in vivo at 2.5 mg/kg was 41%.

As a reminder, the LD50 is the dose expected to kill half of the subjects tested. Regarding `COc1cccc(SCC(O)CN2CCN(C(=O)/C=C/c3cc(OC)c(OC)c(OC)c3)CC2)c1` (stereo not shown) [770 112], the LD50 in “in vivo” (iv) was found to be 224 mg/kg. In the data set on anaesthetized dog (2.3 mg/kg i.v. slow perfusion), the “Diminution in consumption of O2: in time” value was determined as 23 min. In the data set with anaesthetized dog (2.3 mg/kg i.v. slow perfusion), the “Diminution in the cardiac effort” value is 15 min. Besides, the inhibition in vivo at 2.3 mg/kg was determined as 34% in the data set with anaesthetized dog (2.3 mg/kg i.v. slow perfusion, read-out: Diminution in consumption of O2) and 7% in the data set with anaesthetized dog (2.3 mg/kg i.v. slow perfusion, read-out: Diminution in the cardiac effort (IK)).

In the case of `COc1cc(/C=C/C(=O)N2CCN(CC(O)COc3ccc(NC(=O)C(C)C)c4c3OCCO4)CC2)cc(OC)c1OC` (stereo not shown) [770 692], in “in vivo” (iv, 200 mg/kg i.v.), the mortality was determined as 60%. Further, in the data set with anaesthetized dog (setting [3]), the “Diminution in consumption of O2: in time” value was 15 min and the “Diminution in the cardiac effort” value is given as 30 min. The inhibition in vivo at 0.625 mg/kg in the data set with anaesthetized dog (setting [4]) was found to be 60%. In addition, in the data set with anaesthetized dog (setting [5]), the inhibition in vivo at 0.625 mg/kg was 45%.

For the compound `COc1cc(/C=C/C(=O)N2CCCN(CC(O)COc3ccc(C(C)=O)c4c3OCCO4)CC2)cc(OC)c1OC` (stereo not shown) [760 622], the mortality in the data set “in vivo” (iv, 400 mg/kg i.v.) was determined as 40%. In addition, in the data set on anaesthetized dog (1.25 mg/kg i.v. slow perfusion), the “Diminution in consumption of O2: in time” value came out at 30 min and the “Diminution in the cardiac effort” value is recorded as 15 min. The inhibition in vivo at 1.25 mg/kg in the data set on anaesthetized dog (setting [6]) was determined as 20%. In addition, the inhibition in vivo at 1.25 mg/kg in the data set with anaesthetized dog (setting [7]) is 17%.

In the case of `COc1cc(/C=C/C(=O)N2CCN(CC(O)COc3ccc(C(C)(C)C)cc3)CC2)cc(OC)c1OC` (stereo not shown) [770 859], in “in vivo” (iv), the LD50 worked out at 150 mg/kg. Also, in the data set on anaesthetized dog (2.5 mg/kg i.v. slow perfusion), the “Diminution in consumption of O2: in time” value was 30 min and the “Diminution in the cardiac effort” value came out at 60 min. Moreover, in the data set on anaesthetized dog (setting [1]), the inhibition in vivo at 2.5 mg/kg was 30%. In the data set on anaesthetized dog (setting [2]), the inhibition in vivo at 2.5 mg/kg amounted to 52%.

With `COc1cc(/C=C/C(=O)N2CCN(CC(O)COc3ccc(NC(=O)N(C)C)c4c3OCCO4)CC2)cc(OC)c1OC` (stereo not shown) [771 233], the 50% lethal dose (LD50) in the data set “in vivo” (iv) was determined as 310 mg/kg. In addition, the inhibition in vivo at […] in the data set with anaesthetized dog (read-out: Diminution in consumption of O2) worked out at 29%; in the data set on anaesthetized dog (read-out: Diminution in the cardiac effort (IK)), 9%.

`CCOc1c(OC)cc(/C=C/C(=O)N2CCN(CC(O)COc3ccc(C(C)=O)c4c3OCCO4)CC2)cc1OC` (stereo not shown) [770 504]: the LD50 in “in vivo” (iv) came out at 145 mg/kg. Further, the “Diminution in consumption of O2: in time” value with anaesthetized dog (2.5 mg/kg i.v. slow perfusion) turned out to be 15 min. In addition, the inhibition in vivo at 2.5 mg/kg in the data set on anaesthetized dog (setting [1]) is 52%; in the data set with anaesthetized dog (setting [2]), 10%.

Consider `COc1cc(/C=C/C(=O)N2CCN(CC(O)COc3cccc(NC(C)=O)c3)CC2)cc(OC)c1OC` (stereo not shown) [770 844], for which the mortality in “in vivo” (iv, 400 mg/kg i.v.) was 0%. Further, in the data set on anaesthetized dog (2.5 mg/kg i.v. slow perfusion), the “Diminution in consumption of O2: in time” value is on record as 23 min and the “Diminution in the cardiac effort” value stood at 30 min. In addition, in the data set on anaesthetized dog (setting [1]), the inhibition in vivo at 2.5 mg/kg came to 58%. Further, in the data set with anaesthetized dog (setting [2]), the inhibition in vivo at 2.5 mg/kg amounted to 35%.

Regarding `COc1cc(/C=C/C(=O)N2CCN(CC(O)COc3ccc(NC(C)=O)c4c3OCCCO4)CC2)cc(OC)c1OC` (stereo not shown) [780 393], the mortality in “in vivo” (iv, 400 mg/kg i.v.) came out at 10%. Also, the “Diminution in consumption of O2: in time” value in the data set on anaesthetized dog (setting [3]) turned out to be 30 min. In the data set with anaesthetized dog (setting [3]), the “Diminution in the cardiac effort” value worked out at 30 min. The figures for the inhibition in vivo at 0.625 mg/kg with anaesthetized dog (setting [4]) and in the data set with anaesthetized dog (setting [5]) were 24% and 45%, respectively.

`CCOC(=O)c1ccc(OCC(O)CN2CCN(C(=O)/C=C/c3cc(OC)c(OC)c(OC)c3)CC2)cc1` (stereo not shown) [760 382]: the LD50 in the data set “in vivo” (iv) was found to be 260 mg/kg. In the data set with anaesthetized dog (2.5 mg/kg i.v. slow perfusion), the “Diminution in consumption of O2: in time” value is given as 30 min and the “Diminution in the cardiac effort” value was 30 min. Further, the inhibition in vivo at 2.5 mg/kg with anaesthetized dog (setting [1]) was determined as 40%. Also, the inhibition in vivo at 2.5 mg/kg in the data set on anaesthetized dog (setting [2]) turned out to be 24%.

`COc1cc(/C=C/C(=O)N2CCN(CC(O)COc3ccc(OC(C)=O)c4c3OCCO4)CC2)cc(OC)c1OC` (stereo not shown) [780 004]: the mortality in “in vivo” (iv, 400 mg/kg i.v.) turned out to be 10%. Also, in the data set on anaesthetized dog (1.25 mg/kg i.v. slow perfusion), the “Diminution in consumption of O2: in time” value is recorded as 30 min and the “Diminution in the cardiac effort” value amounted to 15 min. Also, the inhibition in vivo at 1.25 mg/kg in the data set on anaesthetized dog (setting [6]) is 22%. Besides, the inhibition in vivo at 1.25 mg/kg in the data set with anaesthetized dog (setting [7]) was found to be 14%.

Source of the values: patent publication US4178442A, “Novel cinnamoyles piperazines and homopiperazines, the method of preparing them and their application in therapeutics” (Delalande S. A., priority 1977, dated 1979).
